Source: US20060040919A1, “Bronchorelaxing compounds” (priority 2004, published 2006)

Tests used:
[1] = system: human bronchus preparation; assay: Bronchorelaxation test: LTD4-induced contraction of human bronchus preparation; conditions: 10 μM capsazepine, 1 h exposure, then 10 nM LTD4; compared with control LTD4 contraction; exemplary test of FIG. 7
Experimental: Dissection and mounting of lung tissue preparations. Lung tissue was obtained from patients undergoing lobectomia or pulmectomia due to lung carcinoma. The tissue was placed in a dissection chamber continuously perfused with 10 ml min^−1 of a physiological saline solution (PSS) at room temperature. An airway was identified in the cut part of the lobe, and a bronchus of 10-20 mm length and 1-2 mm diameter was obtained. The bronchus was cut into rings of a width of about 2-3 mm. Each bronchial ring was cleaved to obtain an about rectangular oblong preparation, one end of which was tied to a small steel hook connected to a force transducer, while the other end of the preparation was attached to a fixed hook. This is followed by a period of adjustment, as described below. The preparation was mounted in an atmosphere containing […] and 6% of CO2.
Experimental chamber. The experimental chamber has a volume of 5 ml. It is perfused with PSS at a rate of 3 ml min^−1. Two preparations are mounted in the chamber, and measurements on them are performed in parallel. For mechanical tensioning each force transducer (AME 801, SensoNor A/S, Horten, Norway) is connected to a micrometer screw. The substances to be tested, the reference substance (capsazepine), and transmitter (LTD4) are injected upstream of the preparation(s).
Materials. […]

SMILES: Oc1cc2c(cc1O)CN(C(=S)NCCc1ccc(Cl)cc1)CCC2 [capsazepine]
- remaining contraction (test force) relative to that caused by the control force [1]: about 55%

SMILES: Oc1c(O)c(Cl)c2c(c1Cl)CCN(C(=S)NCCc1ccc(Cl)cc1)C2 [Res-4-95, 5,8-Dichloro-N-[2-(4-chlorophenyl)ethyl]-6,7-dihydroxy-3,4-dihydroisoquinoline-2(1H)-carbothioamide]
- melting point: 83 to 86 °C
